Measurements as given in ChEMBL document CHEMBL5550200, “Back-Pocket Optimization of 2-Aminopyrimidine-Based Macrocycles Leads to Potent EPHA2/GAK Kinase Inhibitors” (J Med Chem, 2024).

Assays:
[1] = target: Ephrin type-A receptor 7 (Homo sapiens) (UniProt Q15375); assay: Induction of stabilization of recombinant EPHA7 (unknown origin) assessed as change in melting temperature by differential scanning fluorimetry assay
[2] = target: Fibroblast growth factor receptor 1 (Homo sapiens, UniProt P11362)
Description: Induction of stabilization of recombinant FGFR1 (unknown origin) assessed as change in melting temperature by differential scanning fluorimetry assay

Ephrin type-A receptor 4 = Ephrin type-A receptor 4 (Homo sapiens, UniProt P54764); assay: Induction of stabilization of recombinant EPHA4 (unknown origin) assessed as change in melting temperature by differential scanning fluorimetry assay
[3] = target: T1, Ephrin type-B receptor 1 (Homo sapiens) (UniProt P54762); assay: Induction of stabilization of recombinant EPHB1 (unknown origin) assessed as change in melting temperature by differential scanning fluorimetry assay
T1 sequence (whole entry): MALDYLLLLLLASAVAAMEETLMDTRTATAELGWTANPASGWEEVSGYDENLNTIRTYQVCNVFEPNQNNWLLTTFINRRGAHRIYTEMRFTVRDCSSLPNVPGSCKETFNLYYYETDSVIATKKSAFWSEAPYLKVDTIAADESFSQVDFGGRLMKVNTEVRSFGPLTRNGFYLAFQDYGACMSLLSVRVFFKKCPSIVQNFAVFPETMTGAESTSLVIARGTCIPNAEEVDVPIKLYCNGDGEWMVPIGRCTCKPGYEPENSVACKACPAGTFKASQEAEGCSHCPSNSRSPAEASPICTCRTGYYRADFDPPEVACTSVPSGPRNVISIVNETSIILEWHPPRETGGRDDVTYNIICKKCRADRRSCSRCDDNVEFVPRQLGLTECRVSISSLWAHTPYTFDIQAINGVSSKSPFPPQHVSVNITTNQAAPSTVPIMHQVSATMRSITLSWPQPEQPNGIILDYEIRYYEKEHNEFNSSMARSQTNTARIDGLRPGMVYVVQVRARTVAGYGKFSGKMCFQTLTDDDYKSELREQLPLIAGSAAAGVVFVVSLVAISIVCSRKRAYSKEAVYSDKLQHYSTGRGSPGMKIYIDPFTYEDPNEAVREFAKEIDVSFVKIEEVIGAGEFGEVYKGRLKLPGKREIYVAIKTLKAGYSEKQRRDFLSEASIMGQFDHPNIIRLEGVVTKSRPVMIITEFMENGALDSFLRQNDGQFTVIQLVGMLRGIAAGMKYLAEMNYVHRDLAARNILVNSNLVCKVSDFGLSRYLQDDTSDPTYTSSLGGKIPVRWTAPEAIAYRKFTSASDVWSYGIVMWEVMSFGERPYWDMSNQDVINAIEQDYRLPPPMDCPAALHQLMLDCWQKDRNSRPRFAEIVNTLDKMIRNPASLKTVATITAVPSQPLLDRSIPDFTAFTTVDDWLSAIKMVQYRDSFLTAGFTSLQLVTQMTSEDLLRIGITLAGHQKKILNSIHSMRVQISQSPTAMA

Ephrin type-A receptor 2 = Ephrin type-A receptor 2 (Homo sapiens, UniProt P29317)
Description: Induction of stabilization of recombinant EPHA2 (D596 to G900 residues) (unknown origin) expressed in Escherichia coli rosetta BL21(D3)-R3-pRARE2 competent cells assessed as change in melting temperature by differential scanning fluorimetry assay

[4] = target: Vascular endothelial growth factor receptor 1 (Homo sapiens, UniProt P17948); assay: Induction of stabilization of recombinant FLT1 (unknown origin) assessed as change in melting temperature by differential scanning fluorimetry assay
[5] = target: Fibroblast growth factor receptor 2 (Homo sapiens) (UniProt P21802)
Description: Induction of stabilization of recombinant FGFR2 (unknown origin) assessed as change in melting temperature by differential scanning fluorimetry assay

[6] = target: T2, Ephrin type-B receptor 3 (Homo sapiens) (UniProt P54753); assay: Induction of stabilization of recombinant EPHB3 (unknown origin) assessed as change in melting temperature by differential scanning fluorimetry assay
T2 sequence (whole entry): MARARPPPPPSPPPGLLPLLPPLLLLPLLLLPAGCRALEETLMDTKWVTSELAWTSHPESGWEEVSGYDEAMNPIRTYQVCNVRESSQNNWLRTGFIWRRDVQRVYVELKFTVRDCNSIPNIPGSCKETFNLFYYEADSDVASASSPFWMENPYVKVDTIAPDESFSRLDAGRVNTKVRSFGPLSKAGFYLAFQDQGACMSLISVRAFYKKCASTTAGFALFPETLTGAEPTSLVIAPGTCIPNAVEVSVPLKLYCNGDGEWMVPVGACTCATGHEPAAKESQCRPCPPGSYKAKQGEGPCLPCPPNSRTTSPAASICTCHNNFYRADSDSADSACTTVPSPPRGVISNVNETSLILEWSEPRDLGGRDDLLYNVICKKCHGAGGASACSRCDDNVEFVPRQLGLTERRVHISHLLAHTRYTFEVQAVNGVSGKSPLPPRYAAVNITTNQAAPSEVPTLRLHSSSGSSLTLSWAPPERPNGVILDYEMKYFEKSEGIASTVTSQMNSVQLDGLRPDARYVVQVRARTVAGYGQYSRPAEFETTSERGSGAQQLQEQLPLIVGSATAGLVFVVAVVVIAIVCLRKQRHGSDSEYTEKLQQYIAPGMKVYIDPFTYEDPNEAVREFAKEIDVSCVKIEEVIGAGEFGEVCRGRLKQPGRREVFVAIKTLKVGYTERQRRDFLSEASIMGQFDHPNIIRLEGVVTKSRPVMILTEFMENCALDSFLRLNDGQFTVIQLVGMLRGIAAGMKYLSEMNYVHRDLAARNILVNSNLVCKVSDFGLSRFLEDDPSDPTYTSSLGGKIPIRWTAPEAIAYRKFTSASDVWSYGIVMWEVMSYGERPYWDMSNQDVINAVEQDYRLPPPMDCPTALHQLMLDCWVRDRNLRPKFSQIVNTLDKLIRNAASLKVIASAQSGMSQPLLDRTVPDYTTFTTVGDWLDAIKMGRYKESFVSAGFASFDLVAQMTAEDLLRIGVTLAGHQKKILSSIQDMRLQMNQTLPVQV

[7] = target: T3, Cyclin-G-associated kinase (Homo sapiens) (UniProt O14976)
T3 sequence (whole entry): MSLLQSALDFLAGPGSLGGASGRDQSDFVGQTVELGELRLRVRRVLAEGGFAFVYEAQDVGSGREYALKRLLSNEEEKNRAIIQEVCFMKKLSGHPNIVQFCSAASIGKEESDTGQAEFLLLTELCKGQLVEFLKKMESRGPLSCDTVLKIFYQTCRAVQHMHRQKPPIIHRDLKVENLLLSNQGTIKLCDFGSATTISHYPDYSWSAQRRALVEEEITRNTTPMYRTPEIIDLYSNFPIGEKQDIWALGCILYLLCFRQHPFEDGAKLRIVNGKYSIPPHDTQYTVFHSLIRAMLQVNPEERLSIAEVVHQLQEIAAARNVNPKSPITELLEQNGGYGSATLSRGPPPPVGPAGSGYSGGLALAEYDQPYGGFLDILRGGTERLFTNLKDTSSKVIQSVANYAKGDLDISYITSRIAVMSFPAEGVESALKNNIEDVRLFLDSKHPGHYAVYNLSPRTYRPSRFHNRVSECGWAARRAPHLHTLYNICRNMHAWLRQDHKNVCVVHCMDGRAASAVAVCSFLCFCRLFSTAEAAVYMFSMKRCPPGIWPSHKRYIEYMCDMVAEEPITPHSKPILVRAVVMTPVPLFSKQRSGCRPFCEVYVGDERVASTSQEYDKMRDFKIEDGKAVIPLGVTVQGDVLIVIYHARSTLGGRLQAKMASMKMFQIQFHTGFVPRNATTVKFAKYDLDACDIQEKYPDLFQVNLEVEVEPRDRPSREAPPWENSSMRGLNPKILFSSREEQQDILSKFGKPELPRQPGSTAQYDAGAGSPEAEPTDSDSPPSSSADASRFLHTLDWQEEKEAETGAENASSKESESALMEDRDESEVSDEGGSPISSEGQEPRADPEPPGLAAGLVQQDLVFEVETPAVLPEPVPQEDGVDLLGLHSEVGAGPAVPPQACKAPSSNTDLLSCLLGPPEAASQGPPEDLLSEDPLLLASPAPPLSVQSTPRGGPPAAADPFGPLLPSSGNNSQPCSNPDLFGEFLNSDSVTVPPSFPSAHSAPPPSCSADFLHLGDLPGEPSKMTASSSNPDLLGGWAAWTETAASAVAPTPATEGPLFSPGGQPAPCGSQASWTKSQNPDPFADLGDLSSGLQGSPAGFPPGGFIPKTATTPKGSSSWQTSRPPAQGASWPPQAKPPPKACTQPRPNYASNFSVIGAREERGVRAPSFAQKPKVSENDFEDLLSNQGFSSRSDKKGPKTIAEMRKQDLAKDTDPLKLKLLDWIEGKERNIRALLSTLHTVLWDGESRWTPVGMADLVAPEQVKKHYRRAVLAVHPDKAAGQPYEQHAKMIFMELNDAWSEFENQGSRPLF
Description: Induction of stabilization of recombinant GAK (unknown origin) assessed as change in melting temperature by differential scanning fluorimetry assay

[8] = target: Ephrin type-A receptor 5 (Homo sapiens) (UniProt P54756)
Sequence of Ephrin type-A receptor 5 (Homo sapiens) (P54756 whole entry): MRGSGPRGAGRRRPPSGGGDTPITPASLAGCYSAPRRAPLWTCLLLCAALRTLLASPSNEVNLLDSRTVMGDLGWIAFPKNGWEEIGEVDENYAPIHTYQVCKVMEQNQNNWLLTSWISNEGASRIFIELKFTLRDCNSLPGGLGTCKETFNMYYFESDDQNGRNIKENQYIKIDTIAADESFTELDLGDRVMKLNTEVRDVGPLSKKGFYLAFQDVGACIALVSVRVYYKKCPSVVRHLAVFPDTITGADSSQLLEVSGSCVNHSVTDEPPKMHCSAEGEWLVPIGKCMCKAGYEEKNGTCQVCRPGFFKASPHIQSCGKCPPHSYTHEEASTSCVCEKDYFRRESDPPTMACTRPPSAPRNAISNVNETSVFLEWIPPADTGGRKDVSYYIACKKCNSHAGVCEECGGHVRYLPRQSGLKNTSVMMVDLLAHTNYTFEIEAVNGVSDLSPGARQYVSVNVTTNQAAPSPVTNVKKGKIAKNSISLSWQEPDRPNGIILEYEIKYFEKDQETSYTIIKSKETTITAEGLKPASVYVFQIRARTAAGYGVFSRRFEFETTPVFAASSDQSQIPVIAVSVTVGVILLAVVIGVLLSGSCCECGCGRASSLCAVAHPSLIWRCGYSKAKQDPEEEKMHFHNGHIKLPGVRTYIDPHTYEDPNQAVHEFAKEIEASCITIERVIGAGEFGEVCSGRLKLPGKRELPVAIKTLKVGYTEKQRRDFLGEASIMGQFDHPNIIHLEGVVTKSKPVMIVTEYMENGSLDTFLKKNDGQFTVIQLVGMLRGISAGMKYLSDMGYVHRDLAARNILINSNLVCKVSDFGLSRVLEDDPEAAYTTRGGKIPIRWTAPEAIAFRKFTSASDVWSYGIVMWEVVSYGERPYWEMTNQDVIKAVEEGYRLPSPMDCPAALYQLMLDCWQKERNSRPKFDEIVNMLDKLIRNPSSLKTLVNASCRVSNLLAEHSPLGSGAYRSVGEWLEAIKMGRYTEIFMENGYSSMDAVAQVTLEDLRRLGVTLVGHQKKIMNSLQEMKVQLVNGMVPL
Description: Induction of stabilization of recombinant EPHA5 (unknown origin) assessed as change in melting temperature by differential scanning fluorimetry assay

Sequence of Ephrin type-A receptor 2 (P29317 whole entry): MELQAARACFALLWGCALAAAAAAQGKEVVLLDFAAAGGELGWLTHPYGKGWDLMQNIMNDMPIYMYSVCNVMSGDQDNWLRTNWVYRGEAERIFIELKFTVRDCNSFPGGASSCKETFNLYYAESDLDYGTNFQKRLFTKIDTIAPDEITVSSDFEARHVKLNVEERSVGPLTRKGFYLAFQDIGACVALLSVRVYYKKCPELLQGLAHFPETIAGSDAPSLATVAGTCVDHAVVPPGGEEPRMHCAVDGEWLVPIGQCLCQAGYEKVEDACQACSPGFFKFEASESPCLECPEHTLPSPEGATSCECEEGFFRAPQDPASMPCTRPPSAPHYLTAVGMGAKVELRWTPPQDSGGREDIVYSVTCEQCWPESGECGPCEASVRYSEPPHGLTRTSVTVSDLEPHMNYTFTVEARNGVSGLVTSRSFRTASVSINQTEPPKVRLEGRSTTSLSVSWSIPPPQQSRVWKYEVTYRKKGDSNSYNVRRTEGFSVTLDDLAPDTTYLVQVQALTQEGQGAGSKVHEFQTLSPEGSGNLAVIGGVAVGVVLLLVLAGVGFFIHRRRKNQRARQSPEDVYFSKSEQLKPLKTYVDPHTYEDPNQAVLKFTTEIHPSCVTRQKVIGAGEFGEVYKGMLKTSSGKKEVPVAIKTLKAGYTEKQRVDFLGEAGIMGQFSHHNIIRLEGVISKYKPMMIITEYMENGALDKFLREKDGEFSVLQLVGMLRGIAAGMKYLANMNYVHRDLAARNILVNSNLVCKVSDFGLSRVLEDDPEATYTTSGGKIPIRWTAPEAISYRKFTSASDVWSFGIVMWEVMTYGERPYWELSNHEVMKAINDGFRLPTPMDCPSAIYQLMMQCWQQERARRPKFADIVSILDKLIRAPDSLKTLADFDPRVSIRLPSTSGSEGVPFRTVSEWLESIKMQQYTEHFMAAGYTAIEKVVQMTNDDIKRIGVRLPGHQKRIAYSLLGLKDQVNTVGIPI
Sequence of Vascular endothelial growth factor receptor 1 (P17948 whole entry): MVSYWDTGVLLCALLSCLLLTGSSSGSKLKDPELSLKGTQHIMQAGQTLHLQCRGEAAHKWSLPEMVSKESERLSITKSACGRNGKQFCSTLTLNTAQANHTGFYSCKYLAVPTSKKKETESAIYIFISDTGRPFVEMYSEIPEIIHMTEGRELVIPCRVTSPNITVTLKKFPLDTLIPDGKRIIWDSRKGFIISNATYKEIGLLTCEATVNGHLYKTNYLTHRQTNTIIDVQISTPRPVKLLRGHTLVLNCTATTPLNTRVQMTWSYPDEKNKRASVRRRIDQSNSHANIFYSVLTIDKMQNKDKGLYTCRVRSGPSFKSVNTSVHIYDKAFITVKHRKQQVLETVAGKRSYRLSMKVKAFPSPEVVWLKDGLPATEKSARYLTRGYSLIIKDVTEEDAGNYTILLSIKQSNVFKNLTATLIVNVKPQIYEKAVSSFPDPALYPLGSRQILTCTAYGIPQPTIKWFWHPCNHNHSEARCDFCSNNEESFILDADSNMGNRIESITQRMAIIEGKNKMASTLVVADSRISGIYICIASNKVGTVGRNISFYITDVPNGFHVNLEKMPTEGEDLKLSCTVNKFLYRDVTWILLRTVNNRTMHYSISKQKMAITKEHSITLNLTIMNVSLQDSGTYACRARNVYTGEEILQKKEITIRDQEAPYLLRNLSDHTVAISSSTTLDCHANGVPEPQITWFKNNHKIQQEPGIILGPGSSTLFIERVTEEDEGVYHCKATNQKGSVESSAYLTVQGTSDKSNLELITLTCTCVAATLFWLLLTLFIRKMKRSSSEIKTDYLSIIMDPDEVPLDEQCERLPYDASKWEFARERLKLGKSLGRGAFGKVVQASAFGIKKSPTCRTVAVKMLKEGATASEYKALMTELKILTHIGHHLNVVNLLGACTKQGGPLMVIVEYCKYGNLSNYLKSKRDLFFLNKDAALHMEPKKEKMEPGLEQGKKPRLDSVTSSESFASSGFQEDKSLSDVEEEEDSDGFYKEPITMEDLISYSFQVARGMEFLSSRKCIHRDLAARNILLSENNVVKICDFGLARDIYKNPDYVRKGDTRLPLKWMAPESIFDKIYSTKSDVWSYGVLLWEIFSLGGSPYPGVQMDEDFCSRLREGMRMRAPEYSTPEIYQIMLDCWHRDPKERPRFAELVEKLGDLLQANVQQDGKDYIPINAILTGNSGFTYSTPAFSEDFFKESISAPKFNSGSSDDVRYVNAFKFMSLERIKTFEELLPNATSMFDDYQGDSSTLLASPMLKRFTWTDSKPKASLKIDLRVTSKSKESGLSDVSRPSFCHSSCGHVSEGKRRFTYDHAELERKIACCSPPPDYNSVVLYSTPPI
Sequence of Fibroblast growth factor receptor 2 (Homo sapiens) (P21802 22-821 limits assumed): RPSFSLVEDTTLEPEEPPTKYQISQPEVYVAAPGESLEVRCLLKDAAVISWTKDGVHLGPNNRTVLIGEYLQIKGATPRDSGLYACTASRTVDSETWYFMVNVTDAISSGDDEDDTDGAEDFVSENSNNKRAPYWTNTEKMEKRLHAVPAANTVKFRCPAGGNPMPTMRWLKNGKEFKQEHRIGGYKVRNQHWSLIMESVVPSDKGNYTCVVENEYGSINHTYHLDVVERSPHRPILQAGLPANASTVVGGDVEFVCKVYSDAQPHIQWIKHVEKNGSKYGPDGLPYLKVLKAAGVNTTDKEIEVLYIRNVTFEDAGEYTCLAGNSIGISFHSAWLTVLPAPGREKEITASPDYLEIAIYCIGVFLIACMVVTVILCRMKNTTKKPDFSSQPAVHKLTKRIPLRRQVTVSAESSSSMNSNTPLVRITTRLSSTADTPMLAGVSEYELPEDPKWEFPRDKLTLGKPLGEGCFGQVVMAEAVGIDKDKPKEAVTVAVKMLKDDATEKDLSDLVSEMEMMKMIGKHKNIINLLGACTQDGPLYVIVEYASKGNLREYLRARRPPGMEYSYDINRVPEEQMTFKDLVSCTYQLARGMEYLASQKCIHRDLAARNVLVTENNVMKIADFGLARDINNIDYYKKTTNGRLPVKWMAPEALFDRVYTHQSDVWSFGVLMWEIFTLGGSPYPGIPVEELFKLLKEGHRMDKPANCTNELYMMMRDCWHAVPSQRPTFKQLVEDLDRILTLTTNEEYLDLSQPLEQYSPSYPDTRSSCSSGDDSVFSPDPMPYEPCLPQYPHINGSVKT
Sequence of Fibroblast growth factor receptor 1 (P11362 22-822 limits assumed): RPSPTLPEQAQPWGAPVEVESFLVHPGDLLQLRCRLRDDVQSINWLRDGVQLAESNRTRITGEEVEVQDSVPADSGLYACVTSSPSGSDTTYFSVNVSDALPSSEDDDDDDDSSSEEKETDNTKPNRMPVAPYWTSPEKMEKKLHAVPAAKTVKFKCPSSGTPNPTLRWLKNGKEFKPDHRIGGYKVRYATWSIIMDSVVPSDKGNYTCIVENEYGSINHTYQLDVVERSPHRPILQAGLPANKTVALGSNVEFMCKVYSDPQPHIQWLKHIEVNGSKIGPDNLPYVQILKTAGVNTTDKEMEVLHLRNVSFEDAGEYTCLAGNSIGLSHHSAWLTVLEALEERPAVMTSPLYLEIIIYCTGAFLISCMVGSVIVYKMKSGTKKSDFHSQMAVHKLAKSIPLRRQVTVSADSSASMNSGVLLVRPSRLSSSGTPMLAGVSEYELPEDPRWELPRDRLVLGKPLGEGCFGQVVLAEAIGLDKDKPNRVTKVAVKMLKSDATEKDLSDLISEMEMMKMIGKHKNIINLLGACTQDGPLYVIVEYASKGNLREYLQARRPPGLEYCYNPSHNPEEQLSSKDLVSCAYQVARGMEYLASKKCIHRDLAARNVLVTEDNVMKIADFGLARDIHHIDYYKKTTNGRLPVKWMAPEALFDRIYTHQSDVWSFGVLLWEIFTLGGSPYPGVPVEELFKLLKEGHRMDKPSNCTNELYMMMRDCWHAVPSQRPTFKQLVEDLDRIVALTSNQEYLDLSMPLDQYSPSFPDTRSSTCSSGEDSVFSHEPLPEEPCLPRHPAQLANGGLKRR

SMILES	deltaTm [1] [K]	deltaTm [2] [K]	deltaTm (Ephrin type-A receptor 4) [K]	deltaTm [3] [K]	deltaTm (Ephrin type-A receptor 2) [K]	deltaTm [4] [K]	deltaTm [5] [K]	deltaTm [6] [K]	deltaTm [7] [K]	deltaTm [8] [K]
COc1cc(-c2cnc3nc2NCCCNS(=O)(=O)c2cc(ccc2C)N3)ccc1F	2	2.7	3.6	4.2	7.6	-1.3	3	6.1	6.4	5.5
COc1cc(-c2cnc3nc2NCCCNS(=O)(=O)c2cccc(c2)N3)ccc1Cl	2.1	3.3	4.1	0.9	7.7	5.2	3.8	4.7	7.1	4.9
Cc1cc(Cl)c(Cl)cc1-c1cnc2nc1NCCCNS(=O)(=O)c1cccc(c1)N2	0.5	2.4	2.6	3.2	6.2	2.7	3.6	0	4.9	3.5
COc1cc(-c2cnc3nc2NCCCNS(=O)(=O)c2cccc(c2)N3)cc(F)c1F	-3.3	2.2	1.2	2.7	5	3	2.9	2.3	4.1	1.9
COC(=O)c1ccc(-c2cnc3nc2NCCCNS(=O)(=O)c2cccc(c2)N3)cc1OC	0.1	0.6	1.3	1.1	2.9	2.6	1.8	1.3	3.1	1.8
O=S1(=O)NCCCNc2nc(ncc2-c2ccc(F)c(O)c2)Nc2cccc1c2	-2	4.9	2.9	4	7.8	10.7	6.5	3	6.4	4.1
COc1cc(-c2cnc3nc2NCCCNS(=O)(=O)c2cccc(c2)N3)c(F)cc1Cl	0.4	2.7	4.7	4.9	9.8	3	3.4	5.8	9.3	6
O=S1(=O)NCCCNc2nc(ncc2-c2cccc(Cl)c2F)Nc2cccc1c2	1.8	4	3.4	3.1	7	6	5.3	3.7	5.3	4.6
Nc1cc(-c2cnc3nc2NCCCNS(=O)(=O)c2cccc(c2)N3)ccc1F	0.2	2.2	4.4	3.6	7.7	4.9	4.6	1.7	6	4.6
COc1cc(-c2cnc3nc2NCCCNS(=O)(=O)c2cc(ccc2OCC(N)=O)N3)ccc1F	0.7	0.7	2.3	1.5	3.5	0.8	1.5	2.5	6.3	3.9
O=S1(=O)NCCCNc2nc(ncc2-c2ccc(F)c(Cl)c2)Nc2cccc1c2	-1.5	3.8	4.6	5.3	9.2	7.5	5.5	4.3	6.3	5.7
COc1cc(-c2cnc3nc2NCCCNS(=O)(=O)c2cccc(c2)N3)cc(OC)c1OC	-0.3	0.8	2.2	2.2	6	0.7	1.2	2.4	5.9	2.9
CSc1cc(-c2cnc3nc2NCCCNS(=O)(=O)c2cccc(c2)N3)ccc1F	2	3.3	3.4	3	6.9	4.7	4.1	4.3	7.8	4.3
